Data published in the METLIN SMRT retention time set (Domingo-Almenara et al. 2019).

Test: gradient 5% acetonitrile 3 min, to 50% in 2 min, to 85% in 15 min, held 3 min, 100 µL/min
Conditions: column: Zorbax Extend-C18 2.1 x 50 mm; eluents: water / acetonitrile, 0.1% formic acid
In short: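 Data were gathered over 3 months by HPLC coupled to a quadrupole time-of-flight mass spectrometer, operated in positive and negative ionization mode. Mixtures of ~100 pure standards ran on a Zorbax Extend-C18 column (2.1 × 50 mm, 1.8 μm) at 100 μL/min, with water and acetonitrile each containing 0.1% formic acid and dead and dwell volumes of 40 μL and 900 μL. Retention time was read from adduct peaks picked by computer and checked manually.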

Row | RP-LC retention time [s] | Structure (SMILES)
1 | 834 | CCC(=O)N1CCc2c(sc3ncnc(NCCc4ccccc4)c23)C1
2 | 551 | O=C(c1ccccn1)N1CCN(c2cc(-c3ccccc3)ncn2)CC1
3 | 1040 | Cc1cccc(-c2nnc(Cc3nc(-c4ccccc4)no3)o2)c1
4 | 785 | CCOc1ccc(CNS(=O)(=O)c2cc(-c3c(C)noc3NC(C)=O)ccc2OC)cc1
5 | 1000 | CCCCn1cc(S(=O)(=O)NCc2cccc(C)c2)c2cccnc21
6 | 902 | O=C(c1cc(C2CC2)[nH]n1)N1CCC(Cc2ccccc2)CC1
7 | 839 | CCOC(=O)c1ccc2nc(NC(=O)C3CCCCN3S(C)(=O)=O)sc2c1 (stereo not drawn)
8 | 641 | CC(NC(=O)c1ccccc1)c1nc(-c2ccc3nnn(C)c3c2)no1 (stereo not drawn)
9 | 830 | COc1ccc(CCN2CC(=O)N(c3cccc(C)c3)[C@@H]3CS(=O)(=O)C[C@@H]32)cc1
10 | 704 | O=C(NCc1[nH]nc2ccccc12)c1ccc2c(c1)OCO2
11 | 613 | c1cn(-c2cc(N3CCCCC3)ncn2)cn1
12 | 1160 | COc1ccccc1NC(=O)Nc1cc(C(C)C)ccc1C
13 | 674 | CCOC(=O)c1c(S(=O)(=O)N2CCC(C(=O)N3CCOCC3)CC2)c(C)n(C)c1C
14 | 862 | O=C(NC1CCCC1)C1c2ccccc2C(=O)N1Cc1ccc(F)cc1 (stereo not drawn)
15 | 755 | O=C(NC1CC1)[C@@H]1C[C@H](Oc2ccccc2)CN1C(=O)C1CC=CC1
16 | 596 | COC1CCN(CC2CCCCCN2C(=O)c2ccoc2)CC1 (stereo not drawn)
17 | 853 | O=C(Cc1ccsc1)NCCC1CCN(C(=O)Nc2cc(F)cc(F)c2)CC1
18 | 707 | COC(=O)c1ccc(NC(=O)C(=O)NCC(O)c2sccc2C)cc1 (stereo not drawn)
19 | 673 | O=C(c1noc2c1CCc1sccc1-2)N1CCN(c2ccccn2)CC1

Row | RP-LC retention time [s] | Structure (SMILES)
20 | 735 | Cc1cc(F)ccc1NS(=O)(=O)c1c[nH]c2ncccc12
21 | 859 | O=C(NCCc1csc(-c2ccccc2)n1)C1CCN(C(=O)CCc2ccccc2)CC1
22 | 955 | CSc1cccc(NC(=O)N2CCc3nc(-c4ccccc4)ncc3C2)c1
23 | 1300 | CC(C)(C)c1csc(-c2csc(S(=O)(=O)NCc3ccccc3Cl)c2)n1
24 | 750 | CCOc1ccc(C(=O)NC(C(=O)Nc2nc3ccccc3[nH]2)C(C)CC)cc1 (stereo not drawn)
25 | 672 | Cn1c(N2CCN(C(=O)c3cccc(Br)c3)CC2)cc(=O)n(C)c1=O
26 | 553 | CCn1ccc(C(=O)N2CCC(Nc3ncnc4c3CCC4)CC2)n1
27 | 651 | CC(=O)Nc1ccc(NC(=O)CN2C(=O)C3CCCCN3C(=O)c3ccccc32)cc1 (stereo not drawn)
28 | 978 | CCOC(=O)c1ccc(Nc2c(-c3cccc(Cl)c3)nc3cnccn23)cc1
29 | 680 | Cc1ccc(C2=NC3(CCN(C(=O)c4ccn[nH]4)CC3)ON2)cc1
30 | 908 | Cc1sc(NC(=O)C(C)(C)C)nc1-c1ccc2c(c1)NC(=O)C(C)O2 (stereo not drawn)
31 | 580 | CCCNC(=O)N1CCCCCC1CN1CCCC1 (stereo not drawn)
32 | 693 | O=C(Cn1cnc2nc(N3CCC(C(=O)NC4CC4)CC3)sc2c1=O)Nc1cc(F)ccc1F
33 | 743 | N#Cc1ccc2c(c1)N(CCCN1CCC(O)CC1)c1ccccc1S2
34 | 691 | O=C(CCc1c(-c2ccccc2)nc2ccccn12)Nc1ccccc1C(F)(F)F
35 | 1140 | Cc1cc(C)cc(-n2ccnc(NC(=O)Nc3ccc(C)c(F)c3)c2=O)c1
36 | 884 | Cc1cc(C(=O)Nc2c(F)cc(F)cc2Br)n(-c2ccccc2)n1
37 | 829 | Cc1cc(C)n(-c2ccnc(NCc3ccc(F)cc3)n2)n1
38 | 735 | O=C(C1CCN(S(=O)(=O)c2ccc3[nH]c(=O)ccc3c2)CC1)N1CCN(c2ccccc2)CC1
